The values below come from patent publication US20190330220A1, “METHODS OF MAKING SUBSTITUTED PORPHYRIN PHARMACEUTICAL COMPOUNDS AND COMPOSITIONS” (Duke University, priority 2016, published 2019).

Each structure is given as a SMILES string. Where two headings read alike, the source gives them in different places.

One series concerns cells. The following applies: compared with ethyl analogue, background statement; cited from earlier work.
Series [1] in a line: rat Comet assay (genotoxicity). The following applies: pre-clinical studies.
The next series can be described thus: SOD-like activity. The format is biochemical. On the procedure: (§1) Electrochemistry, electrospray-ionization mass spectrometry (ESI-MS), UV-visible spectroscopy and SOD-like activity were carried out as previously described.^29, 32. All quantum chemistry calculations have been performed at the M06-2X/6-311++G(2d,p)//M06-2X/6-31+G(d) DFT level^33-38 using the Gaussian 09 software.^39 All frequency calculations were carried out at […] and used to characterize minima and transition states. The solvent effect has been taken into account using the CPCM continuum solvation model^40 for N,N-dimethylformamide (DMF). The free energies of reactants, transition states, and products have been obtained from the ideal gas partition functions for the structures optimized in solution^40 and corrected to include the compression work of the gas^41 (or liberation free energy^42) to standard 1 mol L^−1 concentration. The coulombic stabilization energy due to the formation of ionic pairs in DMF has also been included in the final results by approximating each ion as a sphere, whose volume was considered the same as that of the solute cavity;^43 the distance between cation and anion in the ionic pair was taken as the sum of the two sphere radii.

The nature of series [2]: toxicity compared with analogous alkyl-chain Mn porphyrins.
Series [3] in a line: electrochemistry, Mn(III)/Mn(II) reduction potential. The series is classed as physicochemical. On the procedure: as §1
Series [4] is described as follows: lipophilicity of Mn porphyrin complex.
The conditions of series [5]: background statement; cited from earlier work.

In the case of `CCCCCC[n+]1ccccc1-c1c2nc(c(-c3cccc[n+]3CCCCCC)c3ccc([n-]3)c(-c3cccc[n+]3CCCCCC)c3nc(c(-c4cccc[n+]4CCCCCC)c4ccc1[n-]4)C=C3)C=C2.[Mn+3]` [MnTnHex-2-PyP^5+, Mn(III) meso-tetrakis-(N-n-hexylpyridinium-2-yl)porphyrin], the accumulation in cells result in the series on cells was “higher levels than its ethyl analogue”.

For `CCCCOCC[n+]1ccccc1C1=C2C=CC3=[N+]2[Mn]24[n]5c1ccc5C(c1cccc[n+]1CCOCCCC)=C1C=CC(=[N+]12)C(c1cccc[n+]1CCOCCCC)=c1ccc([n]14)=C3c1cccc[n+]1CCOCCCC` [MnTnBuOE-2-PyP^5+, Mn(III) meso-tetrakis-(N-n-butoxyethylpyridinium-2-yl)porphyrin], the “genotoxicity in a rat Comet assay” value in series [1] is listed as “lack of genotoxicity”. Moreover, the SOD-like activity entry in the series “SOD-like activity” is “high”. Moreover, the toxicity result in series [2] was “low toxicity”. Moreover, in series [2] (relative to analogous alkyl chains), the “fold less toxic than analogous ortho alkyl MnP^5+” value is 4-5 fold. Also, in series [3], the “Mn(III)/Mn(II) reduction potential (E1/2)” value is on record as “high”. Moreover, in series [4], the lipophilicity entry was “lipophilic”.

Turning to `CC[n+]1ccccc1-c1c2nc(c(-c3cccc[n+]3CC)c3ccc([n-]3)c(-c3cccc[n+]3CC)c3nc(c(-c4cccc[n+]4CC)c4ccc1[n-]4)C=C3)C=C2.[Mn+3]` [MnTE-2-PyP^5+, Mn(III) meso-tetrakis-(N-ethylpyridinium-2-yl)porphyrins], in series [5], the lipophilicity entry is “low lipophilicity”.
